Assay: Stability and protonation constants and pMn of Mn(II) complexes by pH-potentiometry
Type: physicochemical
Procedure: The stability and protonation constants of the metal complexes formed with H2OPC2A were determined by pH-potentiometric titrations, but, for the Cu(II) complex, UV-Vis spectrophotometric measurements were also carried out to supplement the pH-potentiometric titration data (Figures S21 and S22, Supporting Information).
The validity of the equilibrium model used for the fitting of the pH-potentiometric titration data for the Mn(II) system, was supported by ^1H relaxometric measurements, when 1/T1 and 1/T2 relaxation rates were determined as a function of pH, and their trends were compared to the species distribution curves calculated by using the equilibrium constants determined by pH-potentiometry (Table 3). The equilibrium for all metal ions can be described by considering the formation of only ([M(L)]) and monoprotonated ([M(HL)]) complexes (Table 3). However, for the Mn(II), Cu(II), and Zn(II) ions, the formation of ternary hydroxido species ([M(L)(OH)]) was also considered. A comparison of the pH-relaxation rate profiles normalized to 1 mM with the species distribution curves, confirmed that the equilibrium model applied for the fitting of pH-potentiometric titration data, satisfactorily described the Mn(II) system. […] The formation of the [Mn(3,9-OPC2A)] complex was also confirmed by analytical HPLC at pH 7.0 relying on the different retention times of the ligand and the complex (the difference is more than 2 min (Figures S20 and S23)).
The stability constants of the complexes are summarized and compared to those of the chelates formed with H21,7-DO2A, H21,4-DO2A, H23,6-PC2A, H23,9-PC2A, and H21,7-O2DO2A, in Table 3. H23,9-OPC2A forms considerably weaker complexes with all the metal ions involved in the study, than H23,9-PC2A, H23,6-PC2A, H21,7-DO2A, and H21,4-DO2A chelators. […] A similar trend in the stability constants can be observed, when the stability of the structurally related ligands is compared (H23,9-PC2A vs. H21,7-DO2A and, at a somewhat lesser extent, in the case of H23,6-PC2A vs. H21,4-DO2A ligands). […] Therefore, we have calculated the pMn values (pMn = −log(Mn(II)free) for the Mn complexes, by using the conditions proposed by É. Tóth and coworkers (cMn^2+ = cligand = 1 × 10^−5 M, T = 25 °C, pH = 7.4). As it is seen from the data presented in Table 3, the value characteristic for the [Mn(3,9-OPC2A)] complex is as high (pMn = 8.69) as it is for the [Mn(3,9-PC2A)] chelate (despite its lower stability constant), which is, in fact, the highest known value for a monoaquated macrocyclic Mn(II) complex (pMn = 8.64). This means that more than 99,97% of the total Mn(II) in the system is chelated by the H23,9-OPC2A ligand near pH = 7.4 in equilibrium.
Metal stock solutions were prepared from the highest analytical grade chemicals, and their concentrations were determined by complexometric titration with standardized Na2H2EDTA and eriochrome black T indicator in the presence of ascorbic acid, and potassium hydrogen tartrate for MnCl2, murexide indicator for CaCl2 and CuCl2, eriochrome black T for MgCl2 and xylenol orange in the presence of hexamethylenetetramine for the solution of ZnCl2. The concentration of the ligand stock solution was determined by pH-potentiometric titrations. The protonation constants of the ligand were determined by the pH potentiometric titrations with 0.15 M NaOH, using 0.0025 M ligand solutions. The ionic strength was set to 0.15 M by using NaCl. […]

[1] = Mn^2+ complex, T = 25 °C, I = 0.15 M NaCl

Q: For `O=C(O)CN1CCOCCN(CC(=O)O)Cc2cccc(n2)C1` [H23,9-OPC2A, 6-Oxa-3,9,15-triazabicyclo(9.3.1)pentadeca-1(15),11,13-triene-3,9-diacetic acid], which “log KMnHL” value [1] is on record?
A: 2.40(2)

Q: What about the “log KMnL” value [1] of the same compound?
A: 13.03(1)

Q: And the “log KMnLOH” value [1]?
A: 11.49(1)

Q: And the “total Mn(II) chelated by the ligand in equilibrium” value (near pH = 7.4, pMn conditions)?
A: more than 99,97%

Q: What about the pMn (pMn = −log(Mn(II)free), cMn^2+ = cligand = 1 × 10^−5 M, T = 25 °C, pH = 7.4) of the same compound?
A: 8.69

Source: PMC8778187, “A New Oxygen Containing Pyclen-Type Ligand as a Manganese(II) Binder for MRI and ^52Mn PET Applications: Equilibrium, Kinetic, Relaxometric, Structural and Radiochemical Studies” (Molecules, 2022)
